The results in this text go back to ChEMBL document CHEMBL3407401, “Development of certain novel N-(2-(2-(2-oxoindolin-3-ylidene)hydrazinecarbonyl)phenyl)-benzamides and 3-(2-oxoindolin-3-ylideneamino)-2-substituted quinazolin-4(3H)-ones as CFM-1 analogs: design, synthesis, QSAR analysis and anticancer activity” (Eur J Med Chem, 2015).

Converted amounts (≈) assume the structure as drawn.

For assay [1], the system named is Daoy. Description: Cytotoxicity against human DaOY cells assessed as inhibition of cell survival at 25 ug/ml after 24 hrs by MTT assay. It counts as functional.
Assay [2] is described as follows: Cytotoxicity against human HuH7 cells assessed as inhibition of cell survival at 25 ug/ml after 24 hrs by MTT assay. It counts as functional. As to conditions: Huh-7, 24 h.
Assay [3] in a line: Cytotoxicity against human HuH7 cells assessed as inhibition of cell survival after 24 hrs by MTT assay. The format is functional, cell-based. As to conditions: Huh-7, 24 h.
The test system of assay [4] is MDA-MB-231. Nature of the assay: Cytotoxicity against human MDA-MB-231 cells assessed as inhibition of cell survival at 25 ug/ml after 24 hrs by MTT assay. The format is functional. As to conditions: MDA-MB-231, 24 h.
Assay [5] is described as follows: Cytotoxicity against human UW228-2 cells assessed as inhibition of cell survival at 25 ug/ml after 24 hrs by MTT assay. The format is functional. The note with it: UW228-2, 24 h.
Assay [6] can be described thus: Cytotoxicity against human UW228-2 cells assessed as inhibition of cell survival after 24 hrs by MTT assay. The format is functional, cell-based. The note with it: UW228-2, 24 h.
In assay [7] the test system is Daoy. Description: Cytotoxicity against human DaOY cells assessed as inhibition of cell survival after 24 hrs by MTT assay. It counts as functional, cell-based.
For assay [8], the system named is HeLa. Description: Cytotoxicity against human HeLa cells assessed as inhibition of cell survival at 25 ug/ml after 24 hrs by MTT assay. The format is functional.
Assay [9] has as its system MDA-MB-231. Nature of the assay: Cytotoxicity against human MDA-MB-231 cells assessed as inhibition of cell survival after 24 hrs by MTT assay. The format is functional, cell-based. As to conditions: MDA-MB-231, 24 h.
Assay [10] deals with HeLa. Nature of the assay: Cytotoxicity against human HeLa cells assessed as inhibition of cell survival after 24 hrs by MTT assay. It counts as functional, cell-based.

In the case of `Cc1ccc(C(=O)Nc2ccccc2C(=O)N/N=C2\C(=O)Nc3ccccc32)cc1`, the inhibition at 25 µg/mL in the assay with Daoy [1] turned out to be 72.8%; in [2] it was 56.4%; in the assay with MDA-MB-231 [4] it was 46.8%; in assay [5], 71.7%; with HeLa [8] it was 30.4%. For the same molecule, the concentration for half-maximal inhibition (IC50) came to 5 µg/mL (≈ 12.5 µM) in assay [3], 6.06 µg/mL (≈ 15.2 µM) in assay [6] and 3.94 µg/mL (≈ 9.89 µM) with Daoy [7].

Regarding `Cc1ccc(C(=O)Nc2ccccc2C(=O)N/N=C2\C(=O)Nc3ccc(Cl)cc32)cc1`, the inhibition at 25 µg/mL is 77.1% in the assay on Daoy [1]; 84.1% in [2]; 85% in the assay on MDA-MB-231 [4]; 88.7% in assay [5]; 86.7% in the assay on HeLa [8]. Also, the IC50 with MDA-MB-231 [9] came to 5.95 µg/mL (≈ 13.7 µM); in assay [3] it was 3.2 µg/mL (≈ 7.39 µM); in assay [6], 6.87 µg/mL (≈ 15.9 µM); in the assay on Daoy [7], 1.86 µg/mL (≈ 4.3 µM); in the assay on HeLa [10], 6.52 µg/mL (≈ 15.1 µM).

As to `Cc1ccc(C(=O)Nc2ccccc2C(=O)N/N=C2\C(=O)Nc3ccc(C)cc32)cc1`, the inhibition at 25 µg/mL in the assay on Daoy [1] was determined as 49.1%; in [2] it was 38%; in the assay with MDA-MB-231 [4], 37.7%; in assay [5] it was 23.2%; in the assay with HeLa [8] it was 46.5%.

In the case of `COc1ccc2c(c1)/C(=N/NC(=O)c1ccccc1NC(=O)c1ccc(C)cc1)C(=O)N2`, the inhibition at 25 µg/mL is 77.2% with Daoy [1]; 81.6% in assay [2]; 59.4% in the assay with MDA-MB-231 [4]; 84.8% in assay [5]; 80.3% in the assay with HeLa [8]. Besides, the IC50 with MDA-MB-231 [9] amounted to 10.9 µg/mL (≈ 25.4 µM); in assay [3], 4.6 µg/mL (≈ 10.7 µM); in assay [6], 5.82 µg/mL (≈ 13.6 µM); in the assay on Daoy [7] it was 4.42 µg/mL (≈ 10.3 µM); in the assay with HeLa [10], 8.09 µg/mL (≈ 18.9 µM).

For the molecule `Cc1ccc(C(=O)Nc2ccccc2C(=O)N/N=C2\C(=O)Nc3ccc([N+](=O)[O-])cc32)cc1`, the inhibition at 25 µg/mL in the assay with Daoy [1] worked out at 75.8%; in assay [2], 55.2%; in the assay with MDA-MB-231 [4] it was 30.2%; in assay [5], 38.5%; in the assay with HeLa [8] it was 26.8%. For the same molecule, the IC50 in assay [3] is 11.6 µg/mL (≈ 26.2 µM); in the assay on Daoy [7], 6.61 µg/mL (≈ 14.9 µM).

In the case of `O=C1Nc2ccccc2/C1=N/NC(=O)c1ccccc1NC(=O)c1ccc([N+](=O)[O-])cc1`, the inhibition at 25 µg/mL is 79.1% in the assay with Daoy [1]; 48.6% in assay [2]; 44.9% in the assay with MDA-MB-231 [4]; 51.8% in assay [5]; 55% with HeLa [8]. For the same molecule, the IC50 in assay [6] turned out to be 20 µg/mL (≈ 46.6 µM); with Daoy [7], 2.72 µg/mL (≈ 6.33 µM); with HeLa [10] it was 16.5 µg/mL (≈ 38.5 µM).

Take `O=C1Nc2ccc(Cl)cc2/C1=N/NC(=O)c1ccccc1NC(=O)c1ccc([N+](=O)[O-])cc1`: the inhibition at 25 µg/mL in the assay with Daoy [1] was 36.6%; in assay [2], 43.1%; in the assay on MDA-MB-231 [4], 35.5%; in assay [5] it was 41.6%; in the assay on HeLa [8], 31%.

As to `Cc1ccc2c(c1)/C(=N/NC(=O)c1ccccc1NC(=O)c1ccc([N+](=O)[O-])cc1)C(=O)N2`, the inhibition at 25 µg/mL is 62.7% in the assay on Daoy [1]; 55.8% in assay [2]; 40.8% with MDA-MB-231 [4]; 58.7% in assay [5]; 46.1% in the assay on HeLa [8]. In addition, the half-inhibitory concentration (IC50) in assay [3] was 19.3 µg/mL (≈ 43.5 µM); in [6], 9.62 µg/mL (≈ 21.7 µM); with Daoy [7] it was 11.9 µg/mL (≈ 26.7 µM).

For `COc1ccc2c(c1)/C(=N/NC(=O)c1ccccc1NC(=O)c1ccc([N+](=O)[O-])cc1)C(=O)N2`, the inhibition at 25 µg/mL in the assay on Daoy [1] was determined as 11.1%; in [2], 33.2%; with MDA-MB-231 [4], 34.8%; in [5] it was 24.5%; in the assay with HeLa [8] it was 16.3%.

On to `O=C1Nc2ccc([N+](=O)[O-])cc2/C1=N/NC(=O)c1ccccc1NC(=O)c1ccc([N+](=O)[O-])cc1`, for which the inhibition at 25 µg/mL with Daoy [1] was determined as 31.9%; in assay [2], 8.2%; in the assay on MDA-MB-231 [4] it was 0%; in [5] it was 4.8%; with HeLa [8], 14.7%.

As to `Cc1ccc(-c2nc3ccccc3c(=O)n2/N=C2\C(=O)Nc3ccccc32)cc1`, the inhibition at 25 µg/mL is 41.4% in the assay with Daoy [1]; 2.9% in [2]; 24.7% with MDA-MB-231 [4]; 9.3% in [5]; 42.3% in the assay with HeLa [8].

Regarding `Cc1ccc(-c2nc3ccccc3c(=O)n2/N=C2\C(=O)Nc3ccc(Cl)cc32)cc1`, the inhibition at 25 µg/mL in the assay with Daoy [1] was 75.4%; in assay [2], 83.3%; in the assay with MDA-MB-231 [4] it was 78.1%; in assay [5], 88%; in the assay with HeLa [8], 80.8%. The IC50 with MDA-MB-231 [9] came out at 4.8 µg/mL (≈ 11.6 µM); in assay [3] it was 3.76 µg/mL (≈ 9.06 µM); in assay [6], 5.7 µg/mL (≈ 13.7 µM); with Daoy [7], 1.46 µg/mL (≈ 3.52 µM); in the assay with HeLa [10], 8.6 µg/mL (≈ 20.7 µM).

For `Cc1ccc(-c2nc3ccccc3c(=O)n2/N=C2\C(=O)Nc3ccc(C)cc32)cc1`, the inhibition at 25 µg/mL with Daoy [1] stood at 47%; in assay [2], 7.2%; in the assay on MDA-MB-231 [4], 34.3%; in [5] it was 2.1%; with HeLa [8], 42.8%.

Regarding `COc1ccc2c(c1)/C(=N/n1c(-c3ccc(C)cc3)nc3ccccc3c1=O)C(=O)N2`, the inhibition at 25 µg/mL with Daoy [1] is 82.8%; in [2], 53.6%; in the assay with MDA-MB-231 [4], 35.4%; in assay [5], 58.9%; with HeLa [8], 68%. For the same molecule, the 50% inhibitory concentration (IC50) in assay [3] is 22.8 µg/mL (≈ 55.6 µM); in [6], 20.8 µg/mL (≈ 50.7 µM); in the assay with Daoy [7], 3.61 µg/mL (≈ 8.8 µM); in the assay with HeLa [10] it was 9.89 µg/mL (≈ 24.1 µM).

Regarding `Cc1ccc(-c2nc3ccccc3c(=O)n2/N=C2\C(=O)Nc3ccc([N+](=O)[O-])cc32)cc1`, the inhibition at 25 µg/mL in the assay on Daoy [1] worked out at 58.8%; in assay [2] it was 0%; in the assay on MDA-MB-231 [4] it was 23.6%; in assay [5] it was 22.8%; in the assay on HeLa [8], 52.9%. In addition, the values for the IC50 in the assay on Daoy [7] and in the assay on HeLa [10] were 11.7 µg/mL (≈ 27.4 µM) and 21.1 µg/mL (≈ 49.7 µM), respectively.

For `O=C1Nc2ccccc2/C1=N/n1c(-c2cccs2)nc2ccccc2c1=O`, the inhibition at 25 µg/mL in the assay with Daoy [1] amounted to 69.7%; in assay [2], 0%; with MDA-MB-231 [4], 10.7%; in assay [5], 0%; with HeLa [8], 36.2%. Moreover, the IC50 in the assay with Daoy [7] was found to be 5.4 µg/mL (≈ 14.5 µM).

On to `O=C1Nc2ccc(Cl)cc2/C1=N/n1c(-c2cccs2)nc2ccccc2c1=O`, for which the inhibition at 25 µg/mL in the assay on Daoy [1] was found to be 69.3%; in [2], 0%; in the assay with MDA-MB-231 [4], 6.1%; in assay [5] it was 28.4%; with HeLa [8] it was 69.7%. For the same molecule, the figures for the IC50 in the assay with Daoy [7] and in the assay on HeLa [10] were 15.7 µg/mL (≈ 38.5 µM) and 17 µg/mL (≈ 41.7 µM), respectively.

As to `Cc1ccc2c(c1)/C(=N/n1c(-c3cccs3)nc3ccccc3c1=O)C(=O)N2`, the inhibition at 25 µg/mL in the assay with Daoy [1] amounted to 59.4%; in [2] it was 32.9%; in the assay on MDA-MB-231 [4], 29.5%; in assay [5], 32.1%; with HeLa [8] it was 57.8%. Moreover, the figures for the IC50 in the assay on Daoy [7] and in the assay on HeLa [10] were 19 µg/mL (≈ 49.1 µM) and 19.3 µg/mL (≈ 49.9 µM), respectively.

With `COc1ccc2c(c1)/C(=N/n1c(-c3cccs3)nc3ccccc3c1=O)C(=O)N2`, the inhibition at 25 µg/mL worked out at 80.5% with Daoy [1]; 62.7% in assay [2]; 13.6% with MDA-MB-231 [4]; 56.4% in assay [5]; 67% in the assay with HeLa [8]. Further, the half-inhibitory concentration (IC50) in assay [3] was 19.9 µg/mL (≈ 49.5 µM); in [6], 21.4 µg/mL (≈ 53.2 µM); in the assay on Daoy [7], 3.25 µg/mL (≈ 8.08 µM); with HeLa [10] it was 11 µg/mL (≈ 27.3 µM).

For the molecule `O=C1Nc2ccc([N+](=O)[O-])cc2/C1=N/n1c(-c2cccs2)nc2ccccc2c1=O`, the inhibition at 25 µg/mL was determined as 18.4% in the assay with Daoy [1]; 0% in [2]; 0% in the assay on MDA-MB-231 [4]; 0% in [5]; 0% in the assay with HeLa [8].

Turning to `Cc1cc(Br)cc2c1NC(=O)/C2=C1\SC(=S)NC1=O`, the inhibition at 25 µg/mL with Daoy [1] turned out to be 64.8%; in [2] it was 61.8%; in the assay on MDA-MB-231 [4], 52.5%; in assay [5] it was 51.4%; with HeLa [8] it was 57.6%. Also, the IC50 in the assay with MDA-MB-231 [9] came out at 19.7 µg/mL (≈ 55.5 µM); in [3], 8.18 µg/mL (≈ 23 µM); in [6], 16.4 µg/mL (≈ 46.2 µM); in the assay on Daoy [7], 8.12 µg/mL (≈ 22.9 µM); in the assay with HeLa [10] it was 13.5 µg/mL (≈ 38 µM).
